The source of these data is PMC8699473, “An Easily Expandable Multi-Drug LC-MS Assay for the Simultaneous Quantification of 57 Oral Antitumor Drugs in Human Plasma” (Cancers, 2021).

Data set [1] is described as follows: Freeze-thaw stability in spiked pooled human plasma. In kind it is physicochemical.
Data set [2] in a line: Autosampler stability of ready for injection samples. In kind it is physicochemical, human.

Regarding `Cc1cc(Nc2ncc(Cl)c(Nc3ccccc3S(=O)(=O)C(C)C)n2)c(OC(C)C)cc1C1CCNCC1` [Ceritinib], the “Freeze-Thaw Accuracy [%]” value in data set [1] (validation standard 2xLLOV) was found to be 96.9%; in data set [1] (validation standard LLOV) it was 99.9%; in data set [1] (validation standard MOV), 97.6%; in data set [1] (validation standard ULOV) it was 97.5%. The “Autosampler (24h, 4°C) Accuracy [%]” value in data set [2] (validation standard 2xLLOV) was 95.1%; in data set [2] (validation standard LLOV), 97.1%; in data set [2] (validation standard MOV) it was 100.8%; in data set [2] (validation standard ULOV), 101.3%. Besides, the “Autosampler (72h, 4°C) Accuracy [%]” value turned out to be 100.1% in data set [2] (validation standard 2xLLOV), 98.1% in data set [2] (validation standard LLOV), 103.5% in data set [2] (validation standard MOV) and 106.5% in data set [2] (validation standard ULOV).

As for `O=C(c1ccc(F)c(F)c1Nc1ccc(I)cc1F)N1CC(O)([C@@H]2CCCCN2)C1` [Cobimetinib], the “Freeze-Thaw Accuracy [%]” value in data set [1] (validation standard 2xLLOV) was found to be 98.6%; in data set [1] (validation standard LLOV), 98.3%; in data set [1] (validation standard MOV) it was 97.3%; in data set [1] (validation standard ULOV), 96.3%. In addition, the “Autosampler (24h, 4°C) Accuracy [%]” value worked out at 100.3% in data set [2] (validation standard 2xLLOV), 94.6% in data set [2] (validation standard LLOV), 105.2% in data set [2] (validation standard MOV) and 102.5% in data set [2] (validation standard ULOV). Also, the “Autosampler (72h, 4°C) Accuracy [%]” value in data set [2] (validation standard 2xLLOV) stood at 100.8%; in data set [2] (validation standard LLOV) it was 93.0%; in data set [2] (validation standard MOV) it was 103.1%; in data set [2] (validation standard ULOV), 107.2%.

On to `C[C@@H](Oc1cc(-c2cnn(C3CCNCC3)c2)cnc1N)c1c(Cl)ccc(F)c1Cl` [Crizotinib], for which the “Freeze-Thaw Accuracy [%]” value is recorded as 94.8% in data set [1] (validation standard 2xLLOV), 72.2% in data set [1] (validation standard LLOV), 102.4% in data set [1] (validation standard MOV) and 92.4% in data set [1] (validation standard ULOV). In addition, the “Autosampler (24h, 4°C) Accuracy [%]” value in data set [2] (validation standard 2xLLOV) is 105.2%; in data set [2] (validation standard LLOV), 88.1%; in data set [2] (validation standard MOV) it was 108.4%; in data set [2] (validation standard ULOV), 96.5%. Further, the “Autosampler (72h, 4°C) Accuracy [%]” value in data set [2] (validation standard 2xLLOV) worked out at 103.5%; in data set [2] (validation standard LLOV), 86.1%; in data set [2] (validation standard MOV), 103.8%; in data set [2] (validation standard ULOV), 94.7%.

For `CC(C)(C)c1nc(-c2cccc(NS(=O)(=O)c3c(F)cccc3F)c2F)c(-c2ccnc(N)n2)s1` [Dabrafenib], the “Freeze-Thaw Accuracy [%]” value stood at 97.8% in data set [1] (validation standard 2xLLOV), 93.9% in data set [1] (validation standard LLOV), 99.0% in data set [1] (validation standard MOV) and 97.6% in data set [1] (validation standard ULOV). The “Autosampler (24h, 4°C) Accuracy [%]” value amounted to 97.9% in data set [2] (validation standard 2xLLOV), 93.5% in data set [2] (validation standard LLOV), 102.1% in data set [2] (validation standard MOV) and 100.7% in data set [2] (validation standard ULOV). Further, the “Autosampler (72h, 4°C) Accuracy [%]” value in data set [2] (validation standard 2xLLOV) turned out to be 99.3%; in data set [2] (validation standard LLOV), 93.1%; in data set [2] (validation standard MOV) it was 99.8%; in data set [2] (validation standard ULOV), 101.4%.

`Cc1nc(Nc2ncc(C(=O)Nc3c(C)cccc3Cl)s2)cc(N2CCN(CCO)CC2)n1` [Dasatinib]: the “Freeze-Thaw Accuracy [%]” value in data set [1] (validation standard 2xLLOV) worked out at 99.1%; in data set [1] (validation standard LLOV), 108.8%; in data set [1] (validation standard MOV) it was 99.1%; in data set [1] (validation standard ULOV), 102.2%. Moreover, the “Autosampler (24h, 4°C) Accuracy [%]” value in data set [2] (validation standard 2xLLOV) stood at 102.9%; in data set [2] (validation standard LLOV), 116.5%; in data set [2] (validation standard MOV), 102.8%; in data set [2] (validation standard ULOV) it was 102.6%. For the same compound, the “Autosampler (72h, 4°C) Accuracy [%]” value was determined as 106.3% in data set [2] (validation standard 2xLLOV), 114.9% in data set [2] (validation standard LLOV), 99.0% in data set [2] (validation standard MOV) and 101.0% in data set [2] (validation standard ULOV).

As to `COC(=O)N[C@@H](C)CNc1nccc(-c2cn(C(C)C)nc2-c2cc(Cl)cc(NS(C)(=O)=O)c2F)n1` [Encorafenib], the “Freeze-Thaw Accuracy [%]” value is 94.9% in data set [1] (validation standard 2xLLOV), 90.4% in data set [1] (validation standard LLOV), 101.4% in data set [1] (validation standard MOV) and 98.7% in data set [1] (validation standard ULOV). Also, the “Autosampler (24h, 4°C) Accuracy [%]” value is given as 102.4% in data set [2] (validation standard 2xLLOV), 87.7% in data set [2] (validation standard LLOV), 112.5% in data set [2] (validation standard MOV) and 100.5% in data set [2] (validation standard ULOV). In addition, the “Autosampler (72h, 4°C) Accuracy [%]” value stood at 102.6% in data set [2] (validation standard 2xLLOV), 98.2% in data set [2] (validation standard LLOV), 110.5% in data set [2] (validation standard MOV) and 102.4% in data set [2] (validation standard ULOV).

In the case of `CNC(=O)c1ccc(N2C(=S)N(c3ccc(C#N)c(C(F)(F)F)c3)C(=O)C2(C)C)cc1F` [Enzalutamide], the “Freeze-Thaw Accuracy [%]” value in data set [1] (validation standard 2xLLOV) amounted to 97.8%; in data set [1] (validation standard LLOV), 87.6%; in data set [1] (validation standard MOV), 100.9%; in data set [1] (validation standard ULOV) it was 96.1%. The “Autosampler (24h, 4°C) Accuracy [%]” value in data set [2] (validation standard 2xLLOV) is 100.5%; in data set [2] (validation standard LLOV), 89.9%; in data set [2] (validation standard MOV), 108.0%; in data set [2] (validation standard ULOV), 101.7%. Further, the “Autosampler (72h, 4°C) Accuracy [%]” value is given as 102.2% in data set [2] (validation standard 2xLLOV), 91.3% in data set [2] (validation standard LLOV), 105.7% in data set [2] (validation standard MOV) and 103.3% in data set [2] (validation standard ULOV).

For `COc1cc2ncnc(Nc3ccc(F)c(Cl)c3)c2cc1OCCCN1CCOCC1` [Gefitinib], the “Freeze-Thaw Accuracy [%]” value in data set [1] (validation standard 2xLLOV) is given as 97.6%; in data set [1] (validation standard LLOV) it was 92.4%; in data set [1] (validation standard MOV), 97.8%; in data set [1] (validation standard ULOV) it was 97.1%. For the same compound, the “Autosampler (24h, 4°C) Accuracy [%]” value in data set [2] (validation standard 2xLLOV) worked out at 102.3%; in data set [2] (validation standard LLOV) it was 91.6%; in data set [2] (validation standard MOV), 105.6%; in data set [2] (validation standard ULOV), 96.7%. The “Autosampler (72h, 4°C) Accuracy [%]” value in data set [2] (validation standard 2xLLOV) is on record as 98.5%; in data set [2] (validation standard LLOV), 90.7%; in data set [2] (validation standard MOV), 102.2%; in data set [2] (validation standard ULOV), 97.0%.
